From US20230113944A1, “COMPOSITIONS AND METHODS FOR THE TREATMENT OF NEURODEGENERATIVE DISEASES” (priority 2020, published 2023)

biological target: T1, human nSMase2 (Homo sapiens, UniProt Q9NY59); test: biochemical; assay type: biochemical; settings: IC50 (nSMase2) Groups: A-D
T1 construct: expressed in transfected cells; host or cells: HEK293T
T1 sequence (Q9NY59 1-655): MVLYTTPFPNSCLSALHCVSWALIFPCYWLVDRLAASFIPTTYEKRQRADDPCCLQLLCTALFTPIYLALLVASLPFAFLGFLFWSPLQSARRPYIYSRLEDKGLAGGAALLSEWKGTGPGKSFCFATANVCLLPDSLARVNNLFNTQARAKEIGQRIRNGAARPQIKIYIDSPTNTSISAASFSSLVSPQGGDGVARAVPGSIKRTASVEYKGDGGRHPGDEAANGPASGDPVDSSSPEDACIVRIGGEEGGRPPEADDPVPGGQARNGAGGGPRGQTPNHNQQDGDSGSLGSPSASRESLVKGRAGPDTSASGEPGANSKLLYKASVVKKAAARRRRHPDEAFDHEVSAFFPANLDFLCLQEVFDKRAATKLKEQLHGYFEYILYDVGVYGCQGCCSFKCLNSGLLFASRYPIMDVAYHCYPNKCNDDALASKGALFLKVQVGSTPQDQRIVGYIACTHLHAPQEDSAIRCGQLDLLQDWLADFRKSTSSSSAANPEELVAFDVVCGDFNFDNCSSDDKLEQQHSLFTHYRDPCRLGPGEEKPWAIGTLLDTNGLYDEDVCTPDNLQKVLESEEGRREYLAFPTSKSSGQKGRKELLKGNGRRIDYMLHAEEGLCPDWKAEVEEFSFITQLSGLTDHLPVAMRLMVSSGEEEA
Method: To evaluate nSMase2 inhibitory activity of tested compounds, cell lysates from HEK293T cells over-expressing human nSMase2 were used as the source of the nSMase2 enzyme. The Amplex Red Sphingomyelinase activity assay was performed according to previously a described protocol^1. Confluent cells were washed with PBS and harvested with lysis buffer [100 mM Tris-HCl pH 7.5, 100 mM sucrose, 100 μM PMSF, 1× protease inhibitor cocktail] using a cell scraper, and then sonicated 3 times on ice for 10 sec and centrifuged at 10,000×g for 10 min at 4° C. to remove remaining cell debris. An initial screening of a compound library was performed using 50 μM compound concentrations. In secondary testing, selected compounds were analyzed at multiple compound concentrations and plotted as a percentage of DMSO control; dose-response curves were generated to determine IC50s using GraphPad Prism software (GraphPad Software, La Jolla Calif.). […] Activity of the enzyme in the presence of the different concentrations of the inhibitors was plotted against substrate concentration and the maximal rate of the enzymatic reaction (Vmax) and Michaelis constant were calculated using GraphPad Prism.

Row | Compound | IC50 [µM]
1 | COc1ccc2c(n1)[C@]1(C)CCO[C@@H]1N2 | > 50
2 | Cc1cc(C)cc(NC(=O)Oc2ccc3c(c2)[C@]2(C)CCO[C@@H]2N3C)c1 [drawing 37] | 1 to 10
3 | COc1ccc2c(n1)[C@]1(C)CCCO[C@@H]1N2 | > 50
4 | C[C@@]12CCO[C@@H]1Nc1ccc(O)nc12 | > 50
5 | CN1c2ccc(OC(=O)Nc3cncc(F)c3)cc2[C@]2(C)CCO[C@H]12 [drawing 63] | < 1
6 | C[C@@]12CCO[C@@H]1Nc1ccc(Br)nc12 | > 50
7 | CN1c2ccc(OC(=O)Nc3ccncc3F)cc2[C@]2(C)CCO[C@H]12 [drawing 62] | < 1
8 | CN1c2ccc(OC(=O)NC3CCCCC3)cc2[C@]2(C)CCO[C@H]12 [drawing 36] | 1 to 10
9 | C[C@@]12CCO[C@@H]1Nc1ccc(Cl)nc12 | > 50
10 | CN1c2ccc(OC(=O)Nc3ccccc3)cc2[C@]2(C)CCO[C@H]12 [drawing 32] | 1 to 10
11 | C[C@@]12CCO[C@@H]1Nc1cccnc12 | > 50
12 | CN1c2ccc(OCc3ccccc3)nc2[C@]2(C)CCO[C@H]12 | > 50
13 | COc1cnc2c(c1)[C@]1(C)CCO[C@@H]1N2 | > 50
14 | CN1c2ccc(OC(=O)Nc3ccc(OC(F)(F)F)cc3)cc2[C@]2(C)CCO[C@H]12 [drawing 35] | 10 to 50
15 | COc1ccnc2c1N[C@H]1OCC[C@@]21C | > 50
16 | CCN1c2ccc(OCc3ccccc3)nc2[C@]2(C)CCO[C@H]12 | > 50
17 | COC(=O)N1CCC[C@@]2(C)c3nc(OC)ccc3N[C@@H]12 | > 50
18 | COc1ccc2c(n1)[C@]1(c3ccccc3)CCO[C@@H]1N2 | > 50
19 | CN1c2ccc(OC(=O)Nc3ccccc3)nc2[C@]2(C)CCO[C@H]12 | 1 to 10
20 | CC[C@H]1C[C@@]2(C)c3cc(OC(=O)Nc4ccccc4)ccc3N(C)[C@H]2O1 [drawing 42] | 1 to 10
21 | CCN1c2ccc(O)nc2[C@]2(C)CCO[C@H]12 | 1 to 10

same assay, conditions: nSMase2 IC50

Row | Compound | IC50 [µM]
22 | CN1CC[C@@]2(C)c3cc(OC(=O)Nc4ccccc4)ccc3N(C)[C@@H]12 [phenserine, reference compound] | > 50

biological target: T2, Human AChE (Homo sapiens, UniProt P22303); test: biochemical; settings: AChE activity
T2 construct: purchased Sigma
Method: This acetylcholinesterase (AChE) assay is based on an Amplex Red assay kit (Thermo Fisher A12217). Human AChE (Sigma) was used. Briefly, 5 μL of compounds at the desired concentration were loaded into wells of a 384-well plate. Then, 5 μl of human AChE (30 mU/mL) was loaded into each well, followed by the addition of 10 μL of the working solution which contains 400 μM Amplex Red reagent, 2 U/mL HRP, 0.2 U/mL choline oxidase, and 100 μM acetylcholine. The reaction was monitored for 60 minutes and read at 530/590 nm. AChE IC50 was determined by plotting AChE activity as a percentage of DMSO control using GraphPad Prism software.

T2 sequence (P22303 32-614): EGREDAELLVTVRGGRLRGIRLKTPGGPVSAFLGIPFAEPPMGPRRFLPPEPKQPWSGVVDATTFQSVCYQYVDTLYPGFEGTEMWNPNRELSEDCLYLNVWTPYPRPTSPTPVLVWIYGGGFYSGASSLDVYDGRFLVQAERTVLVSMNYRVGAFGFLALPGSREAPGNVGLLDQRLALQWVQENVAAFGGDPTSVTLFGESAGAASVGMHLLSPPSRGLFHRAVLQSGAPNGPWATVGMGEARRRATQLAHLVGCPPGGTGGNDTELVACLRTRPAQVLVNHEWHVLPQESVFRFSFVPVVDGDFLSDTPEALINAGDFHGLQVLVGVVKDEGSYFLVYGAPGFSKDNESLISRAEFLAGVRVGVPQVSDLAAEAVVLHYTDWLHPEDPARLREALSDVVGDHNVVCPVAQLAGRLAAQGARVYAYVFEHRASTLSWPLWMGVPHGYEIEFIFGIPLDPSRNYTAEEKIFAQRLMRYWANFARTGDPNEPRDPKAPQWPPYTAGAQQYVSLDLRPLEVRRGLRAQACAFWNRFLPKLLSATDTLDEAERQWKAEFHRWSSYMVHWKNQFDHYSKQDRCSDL

Row | Compound | IC50 [µM]
23 | Cc1cc(C)cc(NC(=O)Oc2ccc3c(c2)[C@]2(C)CCO[C@@H]2N3C)c1 [drawing 37] | < 0.5
24 | CN1c2ccc(OC(=O)Nc3cncc(F)c3)cc2[C@]2(C)CCO[C@H]12 [drawing 63] | > 5
25 | CN1c2ccc(OC(=O)Nc3ccncc3F)cc2[C@]2(C)CCO[C@H]12 [drawing 62] | > 5
26 | CN1c2ccc(OC(=O)NC3CCCCC3)cc2[C@]2(C)CCO[C@H]12 [drawing 36] | < 0.5
27 | CCN(C)C(=O)Oc1ccc2c(c1)[C@]1(C)CCO[C@@H]1N2C [drawing 65] | > 5
28 | CN1c2ccc(OC(=O)Nc3ccccc3)cc2[C@]2(C)CCO[C@H]12 [drawing 32] | < 0.5
29 | CN1c2ccc(OC(=O)Nc3ccc(OC(F)(F)F)cc3)cc2[C@]2(C)CCO[C@H]12 [drawing 35] | > 5
30 | CN1c2ccc(OC(=O)Nc3ccncc3)cc2[C@]2(C)CCO[C@H]12 (racemic) | > 5
31 | CC[C@H]1C[C@@]2(C)c3cc(OC(=O)Nc4ccccc4)ccc3N(C)[C@H]2O1 [drawing 42] | 2.5 to 5

same assay, conditions: IC50 AChE, Table 2; unit not in table, μM

Row | Compound | IC50 [µM]
32 | CCN(C)C(=O)Oc1ccc2c(c1)[C@]1(C)CCO[C@@H]1N2C [Compound 16] | > 5
